Test system: Aβ 40 in conditioned media of cells stably expressing Amyloid Precursor Protein (APP)
Assay: BACE Cell-Based Assay (Aβ40 in conditioned medium, sandwich ELISA)
Details: 24 hours of incubation with the test compounds, Aβ 40 by sandwich ELISA, read-out: IC50 values in the cell-based assay (inhibition of Aβ 40)
Protocol: The cell-based assay measures inhibition or reduction of Aβ40 in conditioned medium of test compound treated cells, which express amyloid precursor protein.
Cells stably expressing Amyloid Precursor Protein (APP) were plated at a density of 40K cells/well in 96 well plates (Costar). The cells were cultivated for 24 h at 37° C. and 5% CO2 in DMEM supplemented with 10% FBS. The test compounds were then added to cells in 10-point dose response concentrations with the starting concentration being either 100 μM or 10 μM. The compounds were diluted from stock solutions in DMSO and the final DMSO concentration of the test compounds on cells was 0.1%. After 24 hours of incubation with the test compounds the supernatant conditioned media was collected and the Aβ 40 levels were determined using a sandwich ELISA. The IC50 of the compound was calculated from the percent of control or percent inhibition of Aβ 40 as a function of the concentration of the test compound.
The sandwich ELISA to detect Aβ 40 was performed in 96 well microtiter plates, which were pre-treated with goat anti-rabbit IgG (Pierce). The capture and detecting antibody pair that were used to detect Aβ 40 from cell supernatants were affinity purified pAb40 (Biosource) and biotinylated 6E10 (Signet Labs Inc.), respectively. The optimal concentration for the pAb40 antibody was 3 μg/ml in Superblock/TBS (Pierce) that was supplemented with 0.05% Tween 20 (Sigma). Optimal concentration for the detection antibody 6E10-biotinylated was […] in Superblock/TBS (Pierce) that had been supplemented with 2% normal goat serum and 2% normal mouse serum.
Cellular supernatants were incubated with the capture antibody for 3 h at 4° C., followed by 3 wash steps in TBS-tween (0.05%). The detecting antibody incubation was for 2 h at 4° C., again followed by the wash steps as described previously. The final readout of the ELISA is Time-Resolved Fluorescence (counts per minute) using Delfia reagents Streptavidin-Europium and Enhancement solutions (Perkin Elmer) and the Victor 2 multilabel counter (Perkin Elmer).

| IC50 | Compound |
| --- | --- |
| ≤ 5 µM | CCc1ccc2c(c1)[C@@H](NC[C@@H](O)[C@H](Cc1ccccc1)NC(=O)c1cc(N3CCCC3=O)c(=O)n(C3CCCC3)c1)CC1(CCCCC1)O2 [Example 128, 1-cyclopentyl-N-((2S,3R)-4-((8)-6-ethyl-2,2-spirocyclohexyl-chroman-4-ylamino)-3-hydroxy-1-phenylbutan-2-yl)-6-oxo-5-(2-oxopyrrolidin-1-yl)-1,6-dihydropyridine-3-carboxamide] |
| ≤ 5 µM | CCc1ccc2c(c1)[C@@H](NC[C@@H](O)[C@H](Cc1ccccc1)NC(=O)c1ccc(=O)n(C3CCCCC3)c1)CC1(CCCCC1)O2 [Example 129, 1-cyclohexyl-N-((2S,3R)-4-((S)-6-ethyl-2,2-spirocyclohexyl-chroman-4-ylamino)-3-hydroxy-1-phenylbutan-2-yl)-6-oxo-1,6-dihydropyridine-3-carboxamide] |
| ≤ 5 µM | CCc1ccc2c(c1)[C@@H](NC[C@@H](O)[C@H](Cc1ccccc1)NC(=O)c1cc(N3CCCC3=O)c(=O)n(C3CCCC3)c1)CC1(CCCCCC1)O2 [Example 130, 1-cyclopentyl-N-((2S,3R)-4-((S)-6-ethyl-2,2-spirocycloheptyl-chroman-4-ylamino)-3-hydroxy-1-phenylbutan-2-yl)-6-oxo-5-(2-oxopyrrolidin-1-yl)-1,6-dihydropyridine-3-carboxamide] |
| ≤ 5 µM | Cc1ccc2c(c1)[C@@H](NC[C@@H](O)[C@H](Cc1ccccc1)NC(=O)c1ccc(=O)n(C3CCCC3)c1)CC1(CCCC1)O2 [Example 132, 1-cyclopentyl-N-((2S,3R)-4-((S)-2,2-spirocyclopentyl-6-methylchroman-4-ylamino)-3-hydroxy-1-phenylbutan-2-yl)-6-oxo-1,6-dihydropyridine-3-carboxamide] |
| ≤ 5 µM | Cc1ccc2c(c1)[C@@H](NC[C@@H](O)[C@H](Cc1ccccc1)NC(=O)c1ccc(=O)n(CC(C)(C)C)c1)CC1(CCCC1)O2 [Example 133, N-((2S,3R)-4-((S)-2,2-spirocyclopentyl-6-methylchroman-4-ylamino)-3-hydroxy-1-phenylbutan-2-yl)-1-neopentyl-6-oxo-1,6-dihydropyridine-3-carboxamide] |
| ≤ 5 µM | O=C(N[C@@H](Cc1ccccc1)[C@H](O)CN[C@H]1CC2(CCCC2)Oc2ccc(OC(F)(F)F)cc21)c1ccc(=O)n(C2CCCC2)c1 [Example 135, 1-cyclopentyl-N-((2S,3R)-4-((S)-2,2-spirocyclopentyl-6-(tri-fluoromethoxy)chroman-4-ylamino)-3-hydroxy-1-phenylbutan-2-yl)-6-oxo-1,6-dihydropyridine-3-carb oxamide] |
| ≤ 5 µM | CC(C)c1ccc2c(c1)[C@@H](NC[C@@H](O)[C@H](Cc1ccccc1)NC(=O)c1ccc(=O)n(C3CCCC3)c1)CC1(CCCC1)O2 [Example 138, 1-cyclopentyl-N-((2S,3R)-4-((S)-2,2-spirocyclopentyl-6-iso-propylchroman-4-ylamino)-3-hydroxy-1-phenylbutan-2-yl)-6-oxo-1,6-dihydropyridine-3-carb oxamide] |
| ≤ 5 µM | CCc1ccc2c(c1)[C@@H](NC[C@@H](O)[C@H](Cc1ccccc1)NC(=O)c1cc(N3CCCC3=O)c(=O)n(C3CCCC3)c1)CC1(CCCC1C)O2 (stereo partly drawn) [Example 140, 1-cyclopentyl-N-((2S,3R)-4-((S)-6-ethyl-2,2-(-methyl)-spirocyclopentylchroman-4-ylamino)-3-hydroxy-1-phenylbutan-2-yl)-6-oxo-5-(2-oxopyrrolidin-1-yl)-1,6-dihydropyridine-3-carboxamide] |
| ≤ 5 µM | CCc1ccc2c(c1)[C@@H](NC[C@@H](O)[C@H](Cc1ccccc1)NC(=O)c1ccc(=O)n(C3CCCC3)c1)CC1(CCCC1C)O2 (stereo partly drawn) [Example 141, 1-cyclopentyl-N-((2S,3R)-4-((S)-6-ethyl-2,2-(-methyl)-spirocyclopentylchroman-4-ylamino)-3-hydroxy-1-phenylbutan-2-yl)-6-oxo-1,6-dihydropyridine-3-carboxamide] |
| ≤ 5 µM | O=C(N[C@@H](Cc1ccccc1)[C@H](O)CN[C@H]1CC2(CCCC2)Oc2ccccc21)c1ccc(=O)n(C2CCCC2)c1 [Example 149, 1-cyclopentyl-N-((2S,3R)-4-((S)-2,2-spirocyclopentylchroman-4-ylamino)-3-hydroxy-1-phenylbutan-2-yl)-6-oxo-1,6-dihydropyridine-3-carboxamide] |

Further lines, the compound ahead of its results:

| Compound | IC50 |
| --- | --- |
| CCc1ccc2c(c1)[C@@H](NC[C@@H](O)[C@H](Cc1ccccc1)NC(=O)c1cc(-c3ccccc3F)c(=O)n3c1CCC3)CC1(CCC1)O2 [Example 126, N-((2S,3R)-4-((S)-6-Ethyl-2,2-spirocyclobutylchroman-4-ylamino)3-hydroxy-1-phenylbutan-2-yl)-6-(2-fluorophenyl)-5-oxo-1,2,3,5-tetrahydroindolizine-8-carboxamide] | ≤ 5 µM |
| Cc1ccc2c(c1)[C@@H](NC[C@@H](O)[C@H](Cc1ccccc1)NC(=O)c1cc(N3CCCC3=O)c(=O)n(C3CCCC3)c1)CC1(CCCC1)O2 [Example 131, 1-cyclopentyl-N-((2S,3R)-4-((S)-2,2-spirocyclopentyl-6-methylchroman-4-ylamino)-3-hydroxy-1-phenylbutan-2-yl)-6-oxo-5-(2-oxopyrrolidin-1-yl)-1,6-dihydropyridine-3-carboxamide] | ≤ 5 µM |
| O=C(N[C@@H](Cc1ccccc1)[C@H](O)CN[C@H]1CC2(CCCC2)Oc2ccc(OC(F)(F)F)cc21)c1cc(N2CCCC2=O)c(=O)n(C2CCCC2)c1 [Example 134, 1-cyclopentyl-N-((2S,3R)-4-((S)-2,2-spirocyclopentyl-6-(trifluoromethoxy)chroman-4-ylamino)-3-hydroxy-1-phenylbutan-2-yl)-6-oxo-5-(2-oxopyrrolidin-1-yl)-1,6-dihydropyridine-3-carboxamide] | ≤ 5 µM |
| CC(C)(C)Cn1cc(C(=O)N[C@@H](Cc2ccccc2)[C@H](O)CN[C@H]2CC3(CCCC3)Oc3ccc(OC(F)(F)F)cc32)ccc1=O [Example 136, N-((2S,3R)-4-((S)-2,2-spirocyclopentyl-6-(trifluoro-methoxy)chroman-4-ylamino)-3-hydroxy-1-phenylbutan-2-yl)-1-neopentyl-6-oxo-1,6-dihydropyridine-3-carboxamide] | ≤ 5 µM |
| CC(C)c1ccc2c(c1)[C@@H](NC[C@@H](O)[C@H](Cc1ccccc1)NC(=O)c1cc(N3CCCC3=O)c(=O)n(C3CCCC3)c1)CC1(CCCC1)O2 [Example 137, 1-cyclopentyl-N-((2S,3R)-4-((S)-2,2-spirocyclopentyl-6-iso-propylchroman-4-ylamino)-3-hydroxy-1-phenylbutan-2-yl)-6-oxo-5-(2-oxopyrrolidin-1-yl)-1,6-dihydropyridine-3-carboxamide] | ≤ 5 µM |
| CCc1ccc2c(c1)[C@@H](NC[C@@H](O)[C@H](Cc1ccccc1)NC(=O)c1nn(-c3ccccc3)c(=O)cc1Cl)CC1(CCCC1)O2 [Example 142, 4-chloro-N-((2S,3R)-4-((S)-6-ethyl-2,2-spirocyclopentylchroman-4-ylamino)-3-hydroxy-1-phenylbutan-2-yl)-6-oxo-1-phenyl-1,6-dihydropyridazine-3-carboxamide] | ≤ 5 µM |
| CC(C)c1ccc2c(c1)[C@@H](NC[C@@H](O)[C@H](Cc1ccccc1)NC(=O)c1nn(-c3ccccc3)c(=O)cc1Cl)CC1(CCCC1)O2 [Example 144, 4-chloro-N-((2S,3R)-3-hydroxy-4-((S)-6-isopropyl-2,2-spirocyclopentylchroman-4-ylamino)-1-phenylbutan-2-yl)-6-oxo-1-phenyl-1,6-dihydropyridazine-3-carb oxamide] | ≤ 5 µM |
| CCc1ccc2c(c1)[C@@H](NC[C@@H](O)[C@H](Cc1ccccc1)NC(=O)c1ccc(=O)n(-c3ccccc3)n1)CC1(CCC1)O2 [Example 146, N-((2S,3R)-4-((S)-6-ethyl-2,2-spirocyclobutylchroman-4-ylamino)-3-hydroxy-1-phenylbutan-2-yl)-6-oxo-1-phenyl-1,6-dihydropyridazine-3-carboxamide] | ≤ 5 µM |
| CCc1ccc2c(c1)[C@@H](NC[C@@H](O)[C@H](Cc1ccccc1)NC(=O)c1nn(-c3ccccc3)c(=O)cc1Cl)CC1(CCC1)O2 [Example 147, 4-chloro-N-((2S,3R)-4-((S)-6-ethyl-2,2-spirocyclobutylchroman-4-ylamino)-3-hydroxy-1-phenylbutan-2-yl)-6-oxo-1-phenyl-1,6-dihydropyridazine-3-carboxamide] | ≤ 5 µM |
| O=C(N[C@@H](Cc1ccccc1)[C@H](O)CN[C@H]1CC2(CCCC2)Oc2ccccc21)c1cc(N2CCCC2=O)c(=O)n(C2CCCC2)c1 [Example 148, 1-cyclopentyl-N-((2S,3R)-4-((S)-2,2-spirocyclopentylchroman-4-ylamino)-3-hydroxy-1-phenylbutan-2-yl)-6-oxo-5-(2-oxopyrrolidin-1-yl)-1,6-dihydropyridine-3-carboxamide] | ≤ 5 µM |

— US8163766B2, “Beta-secretase modulators and methods of use” (Amgen Inc., priority 2005, dated 2012)
